Counter-ions that a name gives are not always drawn.
Biological target: FP receptor (Homo sapiens (Human), UniProt P43088)
Test: In vitro test of inhibition of human FP receptor activity (PGF2α-induced calcium flux in FP-expressing CHEM1 cells)
Format: cell-based
Conditions: PGF2α 2 nM, some mean values of multiple determinations
Protocol: B-1. In Vitro Test of Inhibition of Human FP Receptor Activity
For the characterization of test substances in respect of FP antagonism, PGF2α-induced calcium flux in FP-expressing CHEM1 cells (Millipore, HTS093C) was used.
10 μl of the prediluted substance solution are added to the Fluo-8-laden cells and incubated at 37° C., 5% CO2 for 10 minutes. The FP receptor is activated by adding 40 μl of 2 nM (final concentration) PGF2α in calcium-free Tyrode, 2 mM CaCl2, 0.002% SmartBlock, and the calcium flux is determined by measuring the fluorescence at ex. 470 nm/[…].
Table 1 below lists the IC50 values from this assay for individual working examples of the invention (some as mean values from multiple independent individual determinations): […]

Chain of FP receptor (P43088 whole entry): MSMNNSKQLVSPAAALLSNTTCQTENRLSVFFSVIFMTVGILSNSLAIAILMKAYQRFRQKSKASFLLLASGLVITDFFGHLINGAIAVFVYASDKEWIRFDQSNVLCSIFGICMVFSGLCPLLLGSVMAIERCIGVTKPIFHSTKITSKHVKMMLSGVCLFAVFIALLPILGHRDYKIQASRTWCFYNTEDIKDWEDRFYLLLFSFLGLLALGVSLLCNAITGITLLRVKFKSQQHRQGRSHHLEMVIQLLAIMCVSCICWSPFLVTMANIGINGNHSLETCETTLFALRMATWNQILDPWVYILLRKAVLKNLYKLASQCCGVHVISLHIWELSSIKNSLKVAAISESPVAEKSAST

Question: `Cc1c(N2CCCC(C)C2)nc2ccc(Br)cc2c1C(=O)NCC(CCC(=O)O)c1ccccc1C(F)(F)F` (single isomer, unassigned; (-)) [Example 199, (−)-5-[({6-Bromo-3-methyl-2-[3-methylpiperidin-1-yl]quinolin-4-yl}carbonyl)amino]-4-[2-(trifluoromethyl)phenyl]pentanoic acid] was tested. Which IC50 did it give?
Answer: The IC50 was 0.0016 µM.

Question: For `Cc1c(N2CCCC(F)(F)C2)nc2ccc(Br)cc2c1C(=O)NCC(CCC(=O)O)c1ccccc1Cl` (single isomer, unassigned; (-)) [Example 51, (−)-5-({[6-Bromo-2-(3,3-difluoropiperidin-1-yl)-3-methylquinolin-4-yl]carbonyl}amino)-4-(2-chlorophenyl)pentanoic acid], which IC50 is on record?
Answer: Its IC50 is 0.013 µM.

Question: Which IC50 does the source give for `Cc1c(N2CCCC(F)C2)nc2ccc(Br)cc2c1C(=O)NCC(CCC(=O)O)c1ccccc1OC(F)(F)F` (single isomer, unassigned; (-)) [Example 202, (−)-5-[({6-Bromo-2-[3-fluoropiperidin-1-yl]-3-methylquinolin-4-yl}carbonyl)amino]-4-[2-(trifluoromethoxy)phenyl]pentanoic acid] here?
Answer: Its IC50 is 0.0017 µM.

Question: With `Cc1c(N2CC=CC2)nc2ccc(Br)cc2c1C(=O)NCC(CCC(=O)O)c1cc(F)ccc1Cl` (racemic) [Example 15, (+/−)-5-({[6-Bromo-2-(2,5-dihydro-1H-pyrrol-1-yl)-3-methylquinolin-4-yl]carbonyl}amino)-4-(2-chloro-5-fluorophenyl)pentanoic acid] as the compound, how does the IC50 read?
Answer: The IC50 was 0.048 µM.

Question: Which IC50 does the source give for `Cc1c(N2CC(F)(F)C(F)(F)C2)nc2ccc(Br)cc2c1C(=O)NCC(CCC(=O)O)c1ccccc1Cl` (racemic) [Example 72, (+/−)-5-({[6-Bromo-3-methyl-2-(3,3,4,4-tetrafluoropyrrolidin-1-yl)quinolin-4-yl]carbonyl}amino)-4-(2-chlorophenyl)pentanoic acid] here?
Answer: The IC50 was 0.08 µM.

Question: With `Cc1ccc(F)cc1C(CCC(=O)O)CNC(=O)c1c(C)c(N2CCCCC2)nc2ccc(Br)cc12` (single isomer, unassigned; (+)) [Example 149, (+)-5-({[6-Bromo-3-methyl-2-(piperidin-1-yl)quinolin-4-yl]carbonyl}amino)-4-(5-fluoro-2-methylphenyl)pentanoic acid] as the compound, how does the IC50 read?
Answer: Its IC50 is 0.013 µM.

Question: With `Cc1c(N2CCCC(F)C2)nc2ccc(Br)cc2c1C(=O)NCC(CCC(=O)O)c1cc(F)ccc1F` (stereo not shown) [Example 264, 5-[({6-Bromo-2-(3-fluoropiperidin-1-yl)-3-methylquinolin-4-yl}carbonyl)amino]-4-(2,5-difluorophenyl)pentanoic acid] as the compound, how does the IC50 read?
Answer: The IC50 was 0.03 µM.

Question: How did the IC50 turn out when `Cc1c(N2CCC(F)(F)CC2)nc2ccc(Br)cc2c1C(=O)NCC(CCC(=O)O)c1ccccc1Cl` (racemic) [Example 28, (+/−)-5-({[6-Bromo-2-(4,4-difluoropiperidin-1-yl)-3-methylquinolin-4-yl]carbonyl}amino)-4-(2-chlorophenyl)pentanoic acid] was run?
Answer: The IC50 was 0.031 µM.

Question: For `Cc1c(N2CCCCO2)nc2ccc(Br)cc2c1C(=O)NCC(CCC(=O)O)c1ccccc1Cl` (racemic) [Example 32, (+/−)-5-({[6-Bromo-3-methyl-2-(1,2-oxazinan-2-yl)quinolin-4-yl]carbonyl}amino)-4-(2-chlorophenyl)pentanoic acid], which IC50 is on record?
Answer: Its IC50 is 0.048 µM.

Question: `Cc1c(N2CCCCC2)nc2ccc(Br)cc2c1C(=O)NCC(CCC(=O)O)c1cc(F)ccc1Cl` (racemic) [Example 5, (+/−)-5-({[6-Bromo-3-methyl-2-(piperidin-1-yl)quinolin-4-yl]carbonyl}amino)-4-(2-chloro-5-fluorophenyl)pentanoic acid] was tested. Which IC50 did it give?
Answer: Its IC50 is 0.0094 µM.

Question: With `Cc1c(N2CCCC(C)(O)C2)nc2ccc(Br)cc2c1C(=O)NCC(CCC(=O)O)c1ccccc1Cl` (stereo not shown) [Example 62, 5-[({6-Bromo-2-[3-hydroxy-3-methylpiperidin-1-yl]-3-methylquinolin-4-yl}carbonyl)amino]-4-(2-chlorophenyl)pentanoic acid] as the compound, how does the IC50 read?
Answer: The IC50 was 0.11 µM.

Question: How did the IC50 turn out when `CCC1CCCN(c2nc3ccc(Br)cc3c(C(=O)NCC(CCC(=O)O)c3ccccc3C(F)(F)F)c2C)C1` (stereo not shown) [Example 124, 5-[({6-Bromo-2-[3-ethylpiperidin-1-yl]-3-methylquinolin-4-yl}carbonyl)amino]-4-[2-(trifluoromethyl)phenyl]pentanoic acid] was run?
Answer: The IC50 was 0.0028 µM.

Question: Which IC50 does the source give for `Cc1c(N2CC(C)CC(C)C2)nc2ccc(Br)cc2c1C(=O)NCC(CCC(=O)O)c1ccccc1Cl` (stereo not shown) [Example 63, 5-[({6-Bromo-2-[3,5-dimethylpiperidin-1-yl]-3-methylquinolin-4-yl}carbonyl)amino]-4-(2-chlorophenyl)pentanoic acid] here?
Answer: Its IC50 is 0.0073 µM.

Question: With `Cc1c(N2CCCCCC2)nc2ccc(Br)cc2c1C(=O)NCC(CCC(=O)O)c1ccccc1OC(F)(F)F` (single isomer, unassigned; (-)) [Example 136, (−)-5-({[2-(Azepan-1-yl)-6-bromo-3-methylquinolin-4-yl]carbonyl}amino)-4-[2-(trifluoromethoxy)phenyl]pentanoic acid] as the compound, how does the IC50 read?
Answer: The IC50 was 0.0011 µM.

Question: Which IC50 does the source give for “(+)-5-({[6-Bromo-3-methyl-2-(piperidin-1-yl)quinolin-4-yl]carbonyl}amino)-4-(2,3,6-trichlorophenyl)pentanoic acid [Example 175]” here?
Answer: The IC50 was 0.16 µM.

Question: How did the IC50 turn out when `Cc1c(N2CCCCC2)nc2ccc(Br)cc2c1C(=O)NCC(CCC(=O)O)c1c(F)cccc1C(F)(F)F` (single isomer, unassigned; (-)) [Example 161, (−)-5-({[6-Bromo-3-methyl-2-(piperidin-1-yl)quinolin-4-yl]carbonyl}amino)-4-[2-fluoro-6-(trifluoromethyl)phenyl]pentanoic acid] was run?
Answer: Its IC50 is 0.0014 µM.

Question: For `Cc1c(N2CCN(C)CC2)nc2ccc(Br)cc2c1C(=O)NCC(CCC(=O)O)c1ccccc1Cl` (racemic) [Example 54, (+/−)-5-({[6-Bromo-3-methyl-2-(4-methylpiperazin-1-yl)quinolin-4-yl]carbonyl}amino)-4-(2-chlorophenyl)pentanoic acid], which IC50 is on record?
Answer: Its IC50 is 0.85 µM.

Question: How did the IC50 turn out when `Cc1c(N2CCCC2)nc2ccc(Br)cc2c1C(=O)NCC(CCC(=O)O)c1c(F)ccc(F)c1Cl` (racemic) [Example 154, (+/−)-5-({[6-Bromo-3-methyl-2-(pyrrolidin-1-yl)quinolin-4-yl]carbonyl}amino)-4-(2-chloro-3,6-difluorophenyl)pentanoic acid] was run?
Answer: Its IC50 is 0.0034 µM.

Question: How did the IC50 turn out when `Cc1c(N2CC3CCC(C3)C2)nc2ccc(Br)cc2c1C(=O)NCC(CCC(=O)O)c1ccccc1Cl` (racemic) [Example 74, (+/−)-5-[({2-[3-Azabicyclo[3.2.1]oct-3-yl]-6-bromo-3-methylquinolin-4-yl}carbonyl)amino]-4-(2-chlorophenyl)pentanoic acid] was run?
Answer: Its IC50 is 0.17 µM.

Question: `Cc1c(N2CCCCC2)nc2ccc(Br)cc2c1C(=O)NCC(CCC(=O)O)c1cc(F)ccc1F` (single isomer, unassigned; (-)) [Example 256, (−)-5-({[6-Bromo-3-methyl-2-(piperidin-1-yl)quinolin-4-yl]carbonyl}amino)-4-(2,5-difluorophenyl)pentanoic acid] was tested. Which IC50 did it give?
Answer: Its IC50 is 0.0084 µM.

Question: `Cc1c(N2CCCC(F)C2)nc2ccc(Br)cc2c1C(=O)NCC(CCC(=O)O)c1ccccc1C(F)(F)F` (single isomer, unassigned; (+)) [Example 190, (+)-5-[({6-Bromo-2-[3-fluoropiperidin-1-yl]-3-methylquinolin-4-yl}carbonyl)amino]-4-[2-(trifluoromethyl)phenyl]pentanoic acid] was tested. Which IC50 did it give?
Answer: Its IC50 is 0.011 µM.

Question: Which IC50 does the source give for `Cc1c(N2CCCC(F)C2)nc2ccc(Br)cc2c1C(=O)NCC(CCC(=O)O)c1c(Cl)ccc(Cl)c1Cl` (single isomer, unassigned) [Example 221, 5-[({6-Bromo-2-[3-fluoropiperidin-1-yl]-3-methylquinolin-4-yl}carbonyl)amino]-4-(2,3,6-trichlorophenyl)pentanoic acid] here?
Answer: Its IC50 is 0.0084 µM.

Question: With `CCNc1nc2ccc(Br)cc2c(C(=O)NCC(CCC(=O)O)c2ccccc2Cl)c1C` (racemic) [Example 109, (+/−)-5-({[6-Bromo-2-(ethylamino)-3-methylquinolin-4-yl]carbonyl}amino)-4-(2-chlorophenyl)pentanoic acid] as the compound, how does the IC50 read?
Answer: Its IC50 is 0.86 µM.

Question: With `Cc1c(N2CCCC2)nc2ccc(Br)cc2c1C(=O)NCC(CCC(=O)O)c1ccccc1C(F)(F)F` (single isomer, unassigned; (-)) [Example 116, (−)-5-({[6-Bromo-3-methyl-2-(pyrrolidin-1-yl)quinolin-4-yl]carbonyl}amino)-4-[2-(trifluoromethyl)phenyl]pentanoic acid] as the compound, how does the IC50 read?
Answer: The IC50 was 0.0046 µM.

Question: With `Cc1ccccc1C(CCC(=O)O)CNC(=O)c1c(C)c(N2CCCC2)nc2ccc(Br)cc12` (single isomer, unassigned; (-)) [Example 234, (−)-5-({[6-Bromo-3-methyl-2-(pyrrolidin-1-yl)quinolin-4-yl]carbonyl}amino)-4-(2-methylphenyl)pentanoic acid] as the compound, how does the IC50 read?
Answer: Its IC50 is 0.0089 µM.

Question: How did the IC50 turn out when `Cc1c(N2CCCC(C(C)C)C2)nc2ccc(Br)cc2c1C(=O)NCC(CCC(=O)O)c1ccccc1Cl` (stereo not shown) [Example 91, 5-[({6-Bromo-2-[3-isopropylpiperidin-1-yl]-3-methylquinolin-4-yl}carbonyl)amino]-4-(2-chlorophenyl)pentanoic acid] was run?
Answer: Its IC50 is 0.0099 µM.

Question: How did the IC50 turn out when `Cc1c(N2CCCC(F)(F)C2)nc2ccc(Br)cc2c1C(=O)NCC(CCC(=O)O)c1c(F)ccc(F)c1Cl` (single isomer, unassigned; (+)) [Example 217, (+)-5-({[6-Bromo-2-(3,3-difluoropiperidin-1-yl)-3-methylquinolin-4-yl]carbonyl}amino)-4-(2-chloro-3,6-difluorophenyl)pentanoic acid] was run?
Answer: The IC50 was 0.05 µM.

Question: Which IC50 does the source give for `Cc1c(N2CCCC2)nc2ccc(Br)cc2c1C(=O)NCC(CCC(=O)O)c1c(Cl)ccc(Cl)c1Cl` (single isomer, unassigned; (-)) [Example 176, formate] here?
Answer: Its IC50 is 0.0078 µM.
